{
  "source": "patent US11998013B1",
  "about": "“1-(morpholin-4-yl)-3-(naphthalen-2-yloxy)propan-2-ol as an eco-friendly insecticidal agent against spodoptera littoralis (boisd.)” (priority 2023, dated 2024)",
  "tested_on": "Spodoptera littoralis",
  "experiment": "Insecticidal bioassay screening (castor leaf dip, larval mortality)",
  "type": "in vivo",
  "details": "for Toxic ratio: 72 h, fenoxycarb's LC50 / compound's LC50 × 100",
  "procedure": "Five concentrations (200, 100, 50, 25, 12.5 ppm) were designed for this synthetic compound and the reference fenoxycarb compound as the dynamic ingredients based on ppm via diluting the commercial formulation.\nIn this experiment, castor leaves are immersed in each of the previously prepared concentrations of the components for 10 seconds and then left to dry for 60 minutes. Larvae of the second and fourth instars of each checked strain are prepared with treated leaves in gauze-covered glass containers for 72 hrs. An untreated control is made in which leaves are dipped in triton x-100 and distilled water only. Then the preserved leaves were removed & fresh, untreated leaves were provided for 72 hours. Three replicates (10 larvae each) were checked for each concentration. Daily inspection was carried out for all treatments and mortality percentages were recorded 3 days (72 hours) after treatment. The average mortality percentage was corrected employing Abbott's formula. The corrected mortality rate for each of the previously synthesized compounds is statistically calculated according to Finney (1970). Through this rate, the corresponding concentration test lines (LDP lines) are assessed. Fifty and ninety percent mortality are determined, and the regression values for the checked products were previously evaluated.",
  "data": [
    {"smiles": "OC(COc1ccc2ccccc2c1)CN1CCOCC1", "note": "(stereo not drawn) [Compound 2, 1-(morpholin-4-yl)-3-(naphthalen-2-yloxy)propan-2-ol]", "values": [
      {"measurement": "Toxic ratio", "setting": "2nd instar larvae", "result": 15.5},
      {"measurement": "Toxic ratio", "setting": "4th instar larvae", "result": 62.4},
      {"measurement": "LC50", "setting": "Spodoptera littoralis, foliar", "result": 17.6, "unit": "µg/mL"},
      {"measurement": "activity against Spodoptera littoralis (in words)", "setting": "compared with the reference insecticide fenoxycarb", "result": "active against Spodoptera littoralis"}
    ]},
    {"smiles": "CCOC(=O)NCCOc1ccc(Oc2ccccc2)cc1", "note": "[Fenoxycarb, reference compound]", "values": [
      {"measurement": "LC50", "setting": "2nd instar larvae of S. littoralis, after 72 h of treatment, treated castor leaves", "result": 2.73, "unit": "ppm"},
      {"measurement": "Toxic ratio", "setting": "2nd instar larvae", "result": 100},
      {"measurement": "LC50", "setting": "4th instar larvae of S. littoralis, after 72 h of treatment, treated castor leaves", "result": 43.231, "unit": "ppm"},
      {"measurement": "Toxic ratio", "setting": "4th instar larvae", "result": 1},
      {"measurement": "LC50", "setting": "Spodoptera littoralis, foliar", "result": 2.73, "unit": "µg/mL"}
    ]}
  ]
}
